In ChEMBL document CHEMBL4308841, “Synthesis, in vitro antiproliferative activity, and kinase inhibitory effects of pyrazole-containing diarylureas and diarylamides” (Eur J Med Chem, 2018):

Experiments:
[1] = test system: M14; assay: Growth inhibition of human M14 cells assessed as cell growth at 100 uM incubated for 48 hrs by sulforhodamine B assay relative to control; assay type: functional; settings: M14, 48 h, read-out: Activity
[2] = test system: IGROV-1; assay: Growth inhibition of human IGROV1 cells incubated for 48 hrs by sulforhodamine B assay; assay type: functional, cell-based; settings: IGROV-1, 48 h
[3] = test system: UACC-257; assay: Growth inhibition of human UACC257 cells assessed as cell growth at 1 uM incubated for 48 hrs by sulforhodamine B assay relative to control; assay type: functional; settings: UACC-257, 48 h, read-out: Activity
[4] = test system: NCI-H322M; assay: Growth inhibition of human NCI-H322M cells assessed as cell growth at 0.01 uM incubated for 48 hrs by sulforhodamine B assay relative to control; assay type: functional; settings: read-out: Activity
[5] = test system: RPMI-8226; assay: Growth inhibition of human RPMI8226 cells assessed as cell growth at 0.01 uM incubated for 48 hrs by sulforhodamine B assay relative to control; assay type: functional; settings: RPMI-8226, 48 h, read-out: Activity
[6] = test system: CAKI-1; assay: Growth inhibition of human Caki1 cells assessed as cell growth at 100 uM incubated for 48 hrs by sulforhodamine B assay relative to control; assay type: functional; settings: CAKI-1, 48 h, read-out: Activity
[7] = test system: LOX IMVI; assay: Growth inhibition of human LOXIMVI cells incubated for 48 hrs by sulforhodamine B assay; assay type: functional
[8] = test system: Malme-3M; assay: Growth inhibition of human MALME-3M cells incubated for 48 hrs by sulforhodamine B assay; assay type: functional, cell-based
[9] = test system: MOLT-4; assay: Growth inhibition of human MOLT4 cells assessed as cell growth at 1 uM incubated for 48 hrs by sulforhodamine B assay relative to control; assay type: functional; settings: MOLT-4, 48 h, read-out: Activity
[10] = test system: SR; assay: Growth inhibition of human SR cells incubated for 48 hrs by sulforhodamine B assay; assay type: functional, cell-based
[11] = test system: A498; assay: Growth inhibition of human A498 cells assessed as cell growth at 1 uM incubated for 48 hrs by sulforhodamine B assay relative to control; assay type: functional; settings: A498, 48 h, read-out: Activity
[12] = test system: T47D; assay: Growth inhibition of human T47D cells assessed as cell growth at 0.01 uM incubated for 48 hrs by sulforhodamine B assay relative to control; assay type: functional; settings: read-out: Activity
[13] = test system: LOX IMVI; assay: Growth inhibition of human LOXIMVI cells assessed as cell growth at 1 uM incubated for 48 hrs by sulforhodamine B assay relative to control; assay type: functional; settings: read-out: Activity
[14] = test system: SNB-75; assay: Growth inhibition of human SNB75 cells incubated for 48 hrs by sulforhodamine B assay; assay type: functional, cell-based; settings: SNB-75, 48 h
[15] = test system: HT-29; assay: Growth inhibition of human HT-29 cells assessed as cell growth at 1 uM incubated for 48 hrs by sulforhodamine B assay relative to control; assay type: functional; settings: HT-29, 48 h, read-out: Activity
[16] = test system: SN12C; assay: Growth inhibition of human SN12C cells assessed as cell growth at 0.1 uM incubated for 48 hrs by sulforhodamine B assay relative to control; assay type: functional; settings: read-out: Activity
[17] = test system: 786-0; assay: Growth inhibition of human 786-0 cells assessed as cell growth at 0.01 uM incubated for 48 hrs by sulforhodamine B assay relative to control; assay type: functional; settings: 786-0, 48 h, read-out: Activity
[18] = test system: CAKI-1; assay: Growth inhibition of human Caki1 cells assessed as cell growth at 1 uM incubated for 48 hrs by sulforhodamine B assay relative to control; assay type: functional; settings: CAKI-1, 48 h, read-out: Activity
[19] = test system: SW-620; assay: Growth inhibition of human SW620 cells assessed as cell growth at 0.01 uM incubated for 48 hrs by sulforhodamine B assay relative to control; assay type: functional; settings: SW-620, 48 h, read-out: Activity
[20] = test system: SK-MEL-28; assay: Growth inhibition of human SK-MEL-28 cells incubated for 48 hrs by sulforhodamine B assay; assay type: functional, cell-based; settings: SK-MEL-28, 48 h
[21] = test system: OVCAR-5; assay: Growth inhibition of human OVCAR5 cells assessed as cell growth at 0.01 uM incubated for 48 hrs by sulforhodamine B assay relative to control; assay type: functional; settings: OVCAR-5, 48 h, read-out: Activity
[22] = test system: SK-MEL-5; assay: Growth inhibition of human SK-MEL-5 cells assessed as cell growth at 1 uM incubated for 48 hrs by sulforhodamine B assay relative to control; assay type: functional; settings: SK-MEL-5, 48 h, read-out: Activity
[23] = test system: OVCAR-8; assay: Growth inhibition of human OVCAR8 cells assessed as cell growth at 100 uM incubated for 48 hrs by sulforhodamine B assay relative to control; assay type: functional; settings: OVCAR-8, 48 h, read-out: Activity
[24] = test system: IGROV-1; assay: Growth inhibition of human IGROV1 cells assessed as cell growth at 0.01 uM incubated for 48 hrs by sulforhodamine B assay relative to control; assay type: functional; settings: IGROV-1, 48 h, read-out: Activity
[25] = test system: MDA-MB-435; assay: Growth inhibition of human MDA-MB-435 cells assessed as cell growth at 0.1 uM incubated for 48 hrs by sulforhodamine B assay relative to control; assay type: functional; settings: MDA-MB-435, 48 h, read-out: Activity
[26] = test system: NCI-H322M; assay: Growth inhibition of human NCI-H322M cells incubated for 48 hrs by sulforhodamine B assay; assay type: functional, cell-based
[27] = test system: NCI-H322M; assay: Growth inhibition of human NCI-H322M cells assessed as cell growth at 100 uM incubated for 48 hrs by sulforhodamine B assay relative to control; assay type: functional; settings: read-out: Activity
[28] = test system: U-251; assay: Growth inhibition of human U251 cells incubated for 48 hrs by sulforhodamine B assay; assay type: functional, cell-based; settings: U-251, 48 h
[29] = test system: Hs-578T; assay: Growth inhibition of human Hs578T cells assessed as cell growth at 0.1 uM incubated for 48 hrs by sulforhodamine B assay relative to control; assay type: functional; settings: read-out: Activity
[30] = read-out: LC50 (the source's name)
[31] = read-out: pLC50 (the source's name) (converted)

SMILES: O=C(Nc1cccc(-n2cc(-c3ccncc3)c(-c3cc(O)cc(Cl)c3)n2)c1)c1ccc(N2CCOCC2)c(C(F)(F)F)c1
- growth at 100 µM [1]: -54%
- GI50 ([2]; read-out: GI50): 5.12 µM
- CC50 [2, 30]: > 100 µM
- TGI ([2]; read-out: TGI): > 100 µM
- GI50 ([2]; read-out: pGI50 (converted)): 5.13 µM
- CC50 [2, 31]: > 100 µM
- TGI ([2]; read-out: pTGI (converted)): > 100 µM
- growth at 1 µM [3]: 54%
- growth at 0.01 µM [4]: 56%
- growth at 0.01 µM [5]: 104%
- growth at 100 µM [6]: -32%
- GI50 ([7]; read-out: GI50): 1.03 µM
- CC50 [7, 30]: > 100 µM
- TGI ([7]; read-out: TGI): 48.1 µM
- GI50 ([7]; read-out: pGI50 (converted)): 1.02 µM
- CC50 [7, 31]: > 100 µM
- TGI ([7]; read-out: pTGI (converted)): 4.57 µM
- GI50 ([8]; read-out: GI50): 1.38 µM
- CC50 [8, 30]: > 100 µM
- TGI ([8]; read-out: TGI): 51.9 µM
- GI50 ([8]; read-out: pGI50 (converted)): 1.38 µM
- CC50 [8, 31]: > 100 µM
- TGI ([8]; read-out: pTGI (converted)): 5.25 µM
- growth at 1 µM [9]: 54%
- GI50 ([10]; read-out: GI50): 0.338 µM
- CC50 [10, 30]: > 100 µM
- TGI ([10]; read-out: TGI): 15.3 µM
- GI50 ([10]; read-out: pGI50 (converted)): 0.339 µM
- CC50 [10, 31]: > 100 µM
- TGI ([10]; read-out: pTGI (converted)): 1.82 µM
- growth at 1 µM [11]: 98%
- growth at 0.01 µM [12]: 97%
- growth at 1 µM [13]: 51%
- GI50 ([14]; read-out: GI50): 0.772 µM
- CC50 [14, 30]: > 100 µM
- TGI ([14]; read-out: TGI): > 100 µM
- GI50 ([14]; read-out: pGI50 (converted)): 0.724 µM
- CC50 [14, 31]: > 100 µM
- TGI ([14]; read-out: pTGI (converted)): > 100 µM
- growth at 1 µM [15]: 94%
- growth at 0.1 µM [16]: 98%
- growth at 0.01 µM [17]: 102%
- growth at 1 µM [18]: 53%
- growth at 0.01 µM [19]: 103%
- GI50 ([20]; read-out: GI50): 0.759 µM
- CC50 [20, 30]: > 100 µM
- TGI ([20]; read-out: TGI): 32.7 µM
- GI50 ([20]; read-out: pGI50 (converted)): 0.759 µM
- CC50 [20, 31]: > 100 µM
- TGI ([20]; read-out: pTGI (converted)): 3.24 µM
- growth at 0.01 µM [21]: 52%
- growth at 1 µM [22]: 52%
- growth at 100 µM [23]: 17%
- growth at 0.01 µM [24]: 93%
- growth at 0.1 µM [25]: 69%
- GI50 ([26]; read-out: GI50): 2.53 µM
- CC50 [26, 30]: > 100 µM
- TGI ([26]; read-out: TGI): > 100 µM
- GI50 ([26]; read-out: pGI50 (converted)): 2.82 µM
- CC50 [26, 31]: > 100 µM
- TGI ([26]; read-out: pTGI (converted)): > 100 µM
- growth at 100 µM [27]: 21%
- IC50 [28]: 1.4 µM
- GI50 ([28]; read-out: GI50): 1.43 µM
- CC50 [28, 30]: 44 µM
- TGI ([28]; read-out: TGI): 6.3 µM
- GI50 ([28]; read-out: pGI50 (converted)): 1.41 µM
- CC50 [28, 31]: 43.7 µM
- TGI ([28]; read-out: pTGI (converted)): 6.31 µM
- growth at 0.1 µM [29]: 90%
